One data set relates to OPRTase/ODCase. Put plainly: In vitro enzymatic conversion of [14C]-orotate to UMP, cell free extract from corn root tissue. In kind it is biochemical. The note with it: cell free extract. As for the experimental part:
(§1) Etiolated corn roots and shoots or soybean suspension cells were used as tissue. Corn seedlings were germinated on vermiculite for 4 days in the dark at 26_C. and roots and shoots harvested separately. The soybean cells were grown in media consisting of Muashige and Skoog salts (Physiol. Plant (1962) 15:473-497) purchased from Gibco/BRL, vitamins (glycine 2 mg/L, thiamine 0.1 mg/L, nicotinic acid 0.5 mg/L, pyridoxine-HCl 0.5 mg/L), myo-inositol (100 mg/L), 2,4-D ([…]), and 30 g/L sucrose. Cell cultures are grown at 25° C. with gentle shaking. Cultures were transfered every 7 days to new growth media.
(§2) Approximately 5-10 g plant tissue were ground in liquid nitrogen and resuspended in 1:2 (w/v) homogenization buffer (30 mM KPO4^−; 25 mM […], 5 mM MgCl2, 5 mM ascorbic acid, pH 7.2). The homogenate was centrifuged at 10,000 g for 20 min, and the supernatant desalted using BioRad columns. The desalted supernatant was used for OPRTase/ODCase enzyme assays. For DHOD enzyme extraction, the supernatant was further centrifuged at 100,000 g for 45 min to obtain a microsomal pellet. The microsomal pellet was resuspended in 3-4 ml resuspension buffer (70 mM Tris-base, pH 7.4) containing 1% Triton X-100.
All enzyme assays were performed according to Rawls, J. M. (1978) Anal. Biochem. 86 (1): 107-117 and Cleaveland et al. (1995). Biochem. Pharm. 49(7):947-954. Enzyme assays were performed in a total volume of 200 ul with 1 uM [^14C]carbamoyl aspartate, [^14C]dihydroorotate or [^14C]orotate as substrates, and 1-5 mM probe compound or barbiturate as inhibitors. The [^14C]carbamoyl aspartate and [^14C]dihydroorotate assay was performed using a potassium phosphate buffer, pH 7.4 with 12 mM NAD^+, and 10 mM MgCl2. […] Over time, 25 ul aliquots were taken from the reaction tube and boiled for 5 min to stop the reaction. Samples were spotted onto cellulose TLC plates and run using 0.1 M potassium phosphate buffer, 100% ammonium sulfate, and 1-propanol (10:6:1). Plates were developed using a TLC plate radioisotope detector. Orotate and UMP standards were run next to unknowns to identify the conversion of [^14C]orotate to [^14C]UMP in the enzyme assay.

A further data set concerns DHO. The data set can be described thus: In vitro conversion of [14C]dihydroorotate to carbamoyl aspartate, corn root microsomal preparation. The data set is classed as biochemical. The method, then: as §1, §2
(§3) All enzyme assays were performed according to Rawls, J. M. (1978) Anal. Biochem. 86 (1): 107-117 and Cleaveland et al. (1995). Biochem. Pharm. 49(7):947-954. Enzyme assays were performed in a total volume of 200 ul with 1 uM [^14C]carbamoyl aspartate, [^14C]dihydroorotate or [^14C]orotate as substrates, and 1-5 mM probe compound or barbiturate as inhibitors. The [^14C]carbamoyl aspartate and [^14C]dihydroorotate assay was performed using a potassium phosphate buffer, pH 7.4 with 12 mM NAD^+, and 10 mM MgCl2. The [^14C]orotate enzyme assay was performed using Tris buffer, pH 8.8 with 12 mM PRPP and 10 mM MgCl2. Over time, 25 ul aliquots were taken from the reaction tube and boiled for 5 min to stop the reaction. Samples were spotted onto cellulose TLC plates and run using 0.1 M potassium phosphate buffer, 100% ammonium sulfate, and 1-propanol (10:6:1). Plates were developed using a TLC plate radioisotope detector. Orotate and UMP standards were run next to unknowns to identify the conversion of [^14C]orotate to [^14C]UMP in the enzyme assay.

For another data set, the system named is DHOD. The data set can be described thus: In vitro conversion of [14C]dihydroorotate to orotate, corn root microsomal preparation. In kind it is biochemical. The method, then: as §1, §2, §3
The subject of a further data set is Arabidopsis. Put plainly: Arabidopsis 96 well microtiter plate injury and reversal test. The data set is classed as in vivo. The note with it: reversal assay, see Table III. The method, then: The compounds were tested in a 96 microtiter well plate containing various concentrations of probe compound with or without intermediates of the pyrimidine and purine biosynthesis pathways to detect reversal of injury. Plates were filled with 0.7% agar medium, seeded with Arabidopsis, and placed in a growth chamber for several days to allow for seed germination and plant growth. Arabidopsis plates were rated on a scale from 0 to 9 where 0 represents no injury, and 9 represents no germination. In addition, injury symptoms observed were recorded.

Data set [1] in a line: Stability in aqueous solution by mass spectroscopy and NMR. The data set is classed as physicochemical. The method, then: The stability analysis of the compound “B”, compound “C”, compound “G”, and compound “E” compounds was performed using a Hewlett Packard HP1100 LC system coupled to a Micromass Platfom-LC mass spectrometer operating with an electrospray ionization source. In positive ion electrospray, AC12254 82A produced molecules at m/z 112(M^+), m/z 153 (M+41) at a cone voltage of 30V. Retention time of AC 12254 82A was 12.54 min with absorption maxima of 248 and 314 nm.
Column: Hypersil Spherisorb Waters ODS(2), 3.6×150 mm
Eluent: 60% acetonitrile, 40% water (0.1% formic acid)
Photodiode Array Detection: Scan Range: 190-600 nm
1H NMR was taken in DMSO-d6 on a 500 MHZ Bruker NMR Spectrometer. […] Each had 5 protons as follows: NH, 2OH and 2 CH.

The next data set addresses T1, ODCase (Rattus norvegicus, UniProt A0ACM8Q7Z8).
T1 construct: host or cells: rat brain tissue
The settings on record: rat brain tissue; cited from earlier work.

Entries after “also recorded” stand apart in the source; their conditions may differ.

T1 sequence (A0ACM8Q7Z8 entry or part of it): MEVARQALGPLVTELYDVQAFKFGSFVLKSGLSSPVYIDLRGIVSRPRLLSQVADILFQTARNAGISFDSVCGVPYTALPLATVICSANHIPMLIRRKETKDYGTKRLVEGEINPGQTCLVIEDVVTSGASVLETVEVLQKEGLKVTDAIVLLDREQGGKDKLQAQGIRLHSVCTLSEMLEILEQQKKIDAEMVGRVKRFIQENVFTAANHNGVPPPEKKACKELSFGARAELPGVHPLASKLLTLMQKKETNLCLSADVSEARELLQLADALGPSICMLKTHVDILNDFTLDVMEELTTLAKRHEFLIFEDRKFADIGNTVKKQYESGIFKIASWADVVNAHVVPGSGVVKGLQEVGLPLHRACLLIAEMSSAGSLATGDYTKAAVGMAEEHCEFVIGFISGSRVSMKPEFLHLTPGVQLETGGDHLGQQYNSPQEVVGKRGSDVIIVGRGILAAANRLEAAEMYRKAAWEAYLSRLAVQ

`O=c1cnn([C@@H]2O[C@H](CO)[C@@H](O)[C@H]2O)c(=O)[nH]1` [Compound 6-Azauridine, 6-Azauridine, reference compound]: in the data set with OPRTase/ODCase, the “effect on OPRTase/ODCase activity (conversion of [14C]-orotate to UMP)” value is recorded as “not shown to inhibit”.
For the molecule `O=c1[nH][nH]cc1C=NO` [D, 2,3-dihydro-3-oxo-1H-pyrazole-4-carboxaldehyde-4-oxime], the “effect on DHO activity (dihydroorotate converted to carbamoyl aspartate) versus untreated control” value in the data set with DHO is recorded as “no difference”. The “effect on DHOD activity (dihydroorotate converted to orotate) versus untreated control” value in the data set with DHOD is on record as “no difference”.
On to `CN(C)C=C1C=NNC1=O` [E, 4-[(dimethylamino)methylene]-2,4-dihydro-3H-pyrazol-3-one], for which the “uracil biosynthesis inhibitory activity” value with Arabidopsis is “significant”. Moreover, the “stability in aqueous solution” value in data set [1] is recorded as “stable in aqueous solution with no hydrolysis detected; also recorded: stable”.
As for `CN1N=CC(=CNc2ccc(F)cc2F)C1=O` [G, 4-[[(2,4-difluorophenyl)amino]methylene]-2,4-dihydro-2-methyl-3H-pyrazol-3-one], the “uracil biosynthesis inhibitory activity” value in the data set with Arabidopsis is on record as “only marginal”. For the same molecule, the “stability in aqueous solution” value in data set [1] is “relatively stable”. Besides, in data set [1] (aqueous solution), the half-life – broadly, how long it takes for the measured level to halve – is over 24 h.
Turning to `O=C(O)C1C=NNC1=O` (centres unmarked) [J, 4,5-dihydro-5-oxo-1H-pyrazole-4-carboxylic acid; or 2,3-dihydro-3-oxo-1H-pyrazole-4-carboxylic acid], in the data set with DHO, the “effect on DHO activity (dihydroorotate converted to carbamoyl aspartate) versus untreated control” value is “no difference”. Also, the “effect on DHOD activity (dihydroorotate converted to orotate) versus untreated control” value in the data set on DHOD is recorded as “no difference”.
On to `O=C1CC(=O)N([C@@H]2O[C@H](COP(=O)(O)O)[C@@H](O)[C@H]2O)C(=O)N1` [ribotide of barbiturate], for which the Ki – broadly, the equilibrium dissociation constant of an inhibitor or competing ligand from its target – at ODCase is 4.1 nM.

Source of the values: US20020058244A1, “Method for detecting uracil biosynthesis inhibitors and their use as herbicides” (priority 2000, published 2002).
